# Legend:
# [1] = Partition coefficient (logP butanol/buffer); type: physicochemical; conditions: 1-butanol / 50 mM Tris-HCl, pH 7.4, room temperature
# OATP1B1 = biological target: T1, OATP1B1 (Homo sapiens, UniProt Q9Y6L6); experiment: Uptake into stable transfected OATP1B1 HEK 293 cells; type: cell-based; conditions: for Uptake into OATP1B1-HEK 293 cells: 100 μM, 40 min, relative to RC1
# T1 sequence (Q9Y6L6 1-691): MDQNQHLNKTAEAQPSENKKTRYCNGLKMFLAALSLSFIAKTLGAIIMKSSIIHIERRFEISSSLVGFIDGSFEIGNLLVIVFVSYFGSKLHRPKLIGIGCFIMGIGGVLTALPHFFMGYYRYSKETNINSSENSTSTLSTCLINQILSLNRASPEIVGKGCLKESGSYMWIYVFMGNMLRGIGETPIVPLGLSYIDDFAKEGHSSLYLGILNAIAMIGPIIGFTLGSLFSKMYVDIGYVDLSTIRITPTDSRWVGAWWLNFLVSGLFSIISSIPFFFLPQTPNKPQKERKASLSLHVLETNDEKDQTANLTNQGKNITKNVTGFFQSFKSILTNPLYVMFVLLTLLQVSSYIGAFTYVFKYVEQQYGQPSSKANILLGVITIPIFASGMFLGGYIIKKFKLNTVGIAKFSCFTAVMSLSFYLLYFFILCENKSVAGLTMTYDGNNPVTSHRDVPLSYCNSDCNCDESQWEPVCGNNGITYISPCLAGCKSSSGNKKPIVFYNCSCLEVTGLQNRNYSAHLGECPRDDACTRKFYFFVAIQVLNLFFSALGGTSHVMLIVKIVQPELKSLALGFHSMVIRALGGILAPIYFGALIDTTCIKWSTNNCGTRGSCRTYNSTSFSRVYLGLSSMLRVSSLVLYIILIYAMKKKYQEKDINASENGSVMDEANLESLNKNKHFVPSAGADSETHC
# Experimental: Cryopreserved cells were shortly thawed in water bath and diluted in 10 mL warm culture medium (37° C.). After medium change the cells were grown for 3 d in a 25 cm^2 cell culture flask. After 3 to 5 d the cells were transferred into 75 cm^2 flasks. […] All test items were prepared in transport buffer at a final concentration of 100 μM from stock solutions (180 to 500 mM concentration). The OATP1B1 HEK 293 cells were incubated with test solutions (test item in transport buffer 500 μL) for 40 min on a thermoshaker without shaking (PHMP, Fa. Grant Bio). Triplicates were performed for each test item. After incubation the cells were washed with 2 mL of cold PBS (+) buffer (Dulbeccos PBS+, Fa. Gibco). The OATP1B1 HEK 293 cells were lysed by addition of 500 μL cold 0.01% Triton-X 100 in Millipore water for 1 h. […] After 1 h 500 μL of 1 nM Terbium ICP-MS standard was added in 2% nitric acid and 0.01% Triton 100.
# [2] = cited from earlier work
# [3] = Water solubility in aqueous buffer; type: physicochemical; conditions: aqueous buffer 10 mM Tris-HCl, pH 7.4, 20° C.
# Experimental: The solid compounds were added stepwise to the buffer solution.
# More substance is added once all the suspended material is dissolved until an equilibrium between undissolved and dissolved substance is reached. The suspension was mixed using a shaker (Heidolph Reax 2000) and treated 5 mn in an ultrasound bath (Bandelin, Sonorex Super RK255H).
# [4] = Excretion study in rats (5 days) and residual gadolinium organ distribution (7 days); type: in vivo, rat; conditions: male rats, 0.1 mmol Gd/kg bw i.v.
# Experimental: The excretion and organ distribution of Example 1 and 15 were determined in male rats (Han-Wistar, n=3). The compound was administered as a sterile aqueous solution (50 mmol Gd/L) as a bolus in the tail vein of the animals. The dose was 0.1 mmol Gd/kg bw.
# Urine was collected in the following time periods 0-1 h, 1-3 h, 3-6 h, 6-24 h, 1-2 d and 2-5 d post injection […] and feces 0-1 d, 1-2 d and 2-5 d post injection. As a control, 3 animals were treated in the same way with RC1. On day 7 the animals were sacrificed, and the following organs were excised: blood, liver, kidney, spleen, heart, lung, brain, muscle, skin, stomach, gut, bone and bone marrow. The remaining carcass was freeze dried and ground to a fine powder. The Gd concentration in the organs and the carcass was determined by ICP-MS (ICP-MS Agilent 7500a, Waldbronn, Germany). The compounds are excreted via dual pathway (liver and kidney). Less than 1% of the administered dose was present in the body 7 days after the injection.
# [5] = 1.5 T, 37° C., from Rohrer et al., cited from earlier work
# OATP1B3 = biological target: T2, OATP1B3 (Homo sapiens, UniProt Q9NPD5); experiment: Uptake into stable transfected OATP1B3 HEK 293 cells; type: cell-based
# T2 sequence (Q9NPD5 1-702): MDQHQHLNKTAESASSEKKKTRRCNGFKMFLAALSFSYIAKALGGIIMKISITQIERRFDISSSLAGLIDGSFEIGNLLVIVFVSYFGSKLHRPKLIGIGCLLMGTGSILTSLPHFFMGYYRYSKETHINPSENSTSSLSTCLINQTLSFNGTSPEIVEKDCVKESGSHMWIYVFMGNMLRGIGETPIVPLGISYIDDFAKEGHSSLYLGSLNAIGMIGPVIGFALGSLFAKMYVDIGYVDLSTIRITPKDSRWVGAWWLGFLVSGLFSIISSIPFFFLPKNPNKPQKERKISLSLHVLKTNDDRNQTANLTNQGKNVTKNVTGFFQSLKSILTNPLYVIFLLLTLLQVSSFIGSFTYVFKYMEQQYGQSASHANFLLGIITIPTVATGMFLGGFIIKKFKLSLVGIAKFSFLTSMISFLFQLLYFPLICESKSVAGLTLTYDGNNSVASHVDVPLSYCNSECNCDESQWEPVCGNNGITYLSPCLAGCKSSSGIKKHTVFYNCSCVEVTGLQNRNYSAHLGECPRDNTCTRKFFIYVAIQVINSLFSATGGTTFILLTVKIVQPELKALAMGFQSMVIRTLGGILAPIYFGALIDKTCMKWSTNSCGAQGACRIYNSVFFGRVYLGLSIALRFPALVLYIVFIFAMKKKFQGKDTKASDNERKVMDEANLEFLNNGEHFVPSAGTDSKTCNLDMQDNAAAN
# [6] = system: freshly isolated rat hepatocytes; experiment: Uptake into freshly isolated rat hepatocytes; type: cell-based
# Experimental: After incubation the adherent hepatocytes were washed once with 37° C. Hepes carbonate transport buffer (500 μL/well). The test items and RC1 were prepared from stock solutions (180 to 500 mM concentration) in Hepes carbonate transport buffer at pH 7.4 to reach a final concentration of 100 μmol Gd/L. The specific uptake of the test item or RC1 into rat hepatocytes via OATP1B1 and OATP1B3 was challenged using a known OATP1B1/1B3 inhibitor (Rifampicine, Fa. Sigma R3501, test item and inhibitor 1:1 each 100 μM final concentration). The prepared rat hepatocyte plates were incubated with test solutions (500 μL/well) at 37° C. for 10 min using a thermoshaker (Fa. Grant Bio, PHMP). Triplicates were performed for each test item. After incubating the cells were washed once with cold PBS buffer (Fa. Gibco, Dulbeccos PBS (+)). After washing the intact hepatocytes were lysed by addition of 500 μL cold 0.01% Triton-X 100 in Millipore water for 1 h. […] As a reference standard RC1 is used in the same well plate. The hepatocyte uptake of the test compound is calculated relative to RC1 (resulting in the unit % of RC1).
# [7] = In vivo pharmacokinetics following i.v. administration in rat; conditions: i.v. bolus, dose 100 μmol/kg bw
# Experimental: Pharmacokinetic parameters of Example 1 and 15 and were determined in male and female rats (Han-Wistar, n=4). […] The samples were digested using strong acidic and oxidizing conditions at elevated temperature following dilution in 1% nitric acid to bring the samples in the quantification range of the method. The lower limit of quantitation amounts to 1 nmol/L for all elements and the upper limit to 1000 nmol/L in the diluted sample.
# The fit of the obtained data to a three-compartment model (Phoenix, WinNonlin 6.4, 3-compartment mode) yielded the pharmacokinetic parameters which are shown in Table 8.
# [8] = Complex stability (transmetallation with Zn2+); type: physicochemical; conditions: 72 hours, 2.5 mM Zn^2+, 26 mM phosphate buffer, 37° C., pH 7.4
# Description: If test compounds are instable under these conditions, transmetallation during this test would lead to the formation of the Zn^2+ complex of the test item, while Gd^3+ is released and precipitated as highly insoluble GdPO4.
compound,measurement,setting,value
"CCOCCOCCOc1ccc(CCCC(C(=O)O)N2CCN(CC(=O)[O-])CCN(CC(=O)[O-])CCN(CC(=O)[O-])CC2)cc1.[Gd+3] (centres unmarked) [Example 25, gadolinium 2,2′,2″-{10-[1-carboxy-4-{4-[2-(2-ethoxyethoxy)ethoxy]phenyl}butyl]-1,4,7,10-tetraazacyclododecane-1,4,7-triyl}triacetate]",Log P (butanol/buffer),[1],−1.00
same,Uptake into OATP1B1-HEK 293 cells,OATP1B1,301 % of RC1
"O=C([O-])CN(CCN(CC(=O)[O-])CC(=O)[O-])CCN(CC(=O)[O-])C(COCc1ccccc1)C(=O)[O-].[Gd+3].[H+].[H+] (centres unmarked) [Gd-BOPTA, gadobenic acid]",secreted into the bile,[2]; Seale et al. 2009,3-to-5%
"CCOc1ccc(C[C@@H](CN(CCN(CC(=O)[O-])CC(=O)[O-])CC(=O)[O-])N(CC(=O)[O-])CC(=O)[O-])cc1.[Gd+3].[H+].[H+] [Gd-EOB-DTPA, gadoxetic acid]",excreted into the bile,[2]; in vivo,up to 50 % of the administered dose
"CCOc1ccc(C[C@@H](CN(CCN(CC(=O)[O-])CC(=O)[O-])CC(=O)[O-])N(CC(=O)[O-])CC(=O)[O-])cc1.[Gd+3].[H+].[H+] [RC1, Gd-EOB-DTPA]",Solubility,[3],>250 mM
same,Excretion Urine,[4]; 0-1 h post injection,23.2 ± 1.6% Dose
same,Excretion Feces,[4]; 0-1 d post injection,77.5 ± 2.7% Dose
same,Excretion Urine,[4]; 1-3 h post injection,23.5 ± 1.5% Dose
same,Excretion Feces,[4]; 1-2 d post injection,80.6 ± 2.9% Dose
same,Excretion Urine,[4]; 1-2 d post injection,23.7 ± 1.5% Dose
same,Excretion Feces,[4]; 2-5 d post injection,80.8 ± 2.9% Dose
same,Excretion Urine,[4]; 2-5 d post injection,23.7 ± 1.5% Dose
same,Excretion Urine,[4]; 3-6 h post injection,23.6 ± 1.5% Dose
same,Excretion Urine,[4]; 6-24 h post injection,23.7 ± 1.5% Dose
same,Σ organs and carcass,[4]; 7 d post injection,0.14 ± 0.08% Dose
same,Total recovery,[4],104.6 ± 2.4% Dose
same,r1 human plasma,[5]; bovine plasma instead of human plasma,5.2 L/mmol/s
same,r1 water,[5]; water,3.3 L/mmol/s
same,Uptake into OATP1B3-HEK 293 cells,"OATP1B3; 100 μM, 40 min, relative to RC1",100 % of RC1
same,Inhibition Rifampicine,OATP1B3; OATP1B3-HEK 293 cells,99 % inhibition
same,Uptake rat hepatocytes,"[6]; 100 μmol Gd/L, 10 min, 37° C., relative to RC1",100 % of RC1
same,Inhibition Rifampicine,[6]; test item and Rifampicine 1:1 each 100 μM,97 % inhibition
same,AUCnorm Area under the curve,[7],0.40 kg·h/L
same,Clplasma Plasma clearance,[7],40 mL/min/kg
same,Vss Volume of distribution at steady state,[7],0.9 L/kg
same,"t½ α Half-life, compartment V1",[7],2 min
same,"t½ β Half-life, compartment V2",[7],8 min
same,"t½ γ Half-life, compartment V3",[7],390 min
same,Transmetallation stability,[8],44%
same,Log P (butanol/buffer),[1],−2.12
same,Uptake into OATP1B1-HEK 293 cells,OATP1B1,100 % of RC1
same,Inhibition Rifampicine,OATP1B1; OATP1B1-HEK 293 cells,81 % inhibition

# Reference: patent US20240182431A1, “NEW CONTRAST AGENT FOR USE IN MAGNETIC RESONANCE IMAGING” (Bayer Aktiengesellschaft, priority 2021, published 2024)
